Measurements as given in patent publication US20220042033A1, “COMPOSITION AND METHOD FOR CONFERRING AND/OR ENHANCING TOLERANCE AGAINST HERBICIDES BY USING VARIANTS OF PPO” (FarmHannong Co., Ltd., priority 2017, published 2022).
pIC50: −log10 of the molar value.

Assays:
[1] = molecular target: Auxenochlorella protothecoides ApPPO1 (SEQ ID NO: 1) variant F209A, fused to MBP (Auxenochlorella protothecoides, UniProt A0A087SQM0, F209A); assay: PPO enzyme inhibition assay (IC50), MBP-fused PPO; assay type: biochemical
Method: (§2) Thus, PPO proteins of wild type and variants were expressed as fused to MBP and were used for experiments.
(§3) The following process for purification of PPO protein was performed in a 4° C. cold room. […] The column was washed with 3 column volumes of buffer and the presence of protein in the washing solution was examined. When the protein was no longer detected, the washing procedure was terminated. Then, the MBP-PPO protein was eluted with approximately 2 column volumes of buffer containing 20 mM maltose. The protein concentration of each eluent was determined and the elution was stopped when the protein was no longer detected. Ten microliter of each fraction was investigated for protein quantification and SDS-PAGE analysis. […]
(§4) Hundred and eighty microliters of a reaction mixture containing the purified PPO protein were placed in 96 well plates and 20 μl of purified PPO proteins were added. […] The reaction proceeded at room temperature for 30 min and the fluorescence of protoporphyrin IX was measured using Microplate reader (Sense, Hidex) (excitation: 405 nm; emission: 633 nm). […] To this, 2.7 N HCl was added, and the absorbance at 408 nm was measured. A standard curve was generated using standard protoporphyrin IX, and PPO activity was measured by calibration of protoporphyrin IX using the standard curve of protoporphyrin IX.

[2] = molecular target: Auxenochlorella protothecoides ApPPO1 (protoporphyrinogen IX oxidase), wild type, SEQ ID NO: 1, fused to MBP (Auxenochlorella protothecoides, UniProt A0A087SQM0); assay: PPO enzyme inhibition assay (IC50), MBP-fused PPO; assay type: biochemical; conditions: ApPPO1 WT; 50 μM protoporphyrinogen IX, pH 8.0, room temperature, 30 min
[3] = tested on: E. coli BT3(ΔPPO) transformed with Myxococcus xanthus MxPPO (SEQ ID NO: 3) variant A170C; assay: Herbicide tolerance test in PPO-deficient E. coli BT3(ΔPPO), growth on plates; assay type: cell-based; conditions: Table 9, light, tiafenacil to 2000 μM, saflufenacil to 200 μM, flumioxazin to 100 μM
[4] = tested on: E. coli BT3(ΔPPO) transformed with Auxenochlorella protothecoides ApPPO1 wild type, SEQ ID NO: 1; assay: as above; assay type: cell-based; conditions: ApPPO1 WT, 37° C., 16 to 20 hours
Method: (§1) Then, the extent of tolerance was evaluated.

[5] = tested on: E. coli BT3(ΔPPO) transformed with Myxococcus xanthus MxPPO wild type, SEQ ID NO: 3; assay: as above; assay type: cell-based; conditions: MxPPO WT, light
Method: as §1

[6] = tested on: wild type A. thaliana (Col-0 ecotype); assay: Herbicide spray test on 4-week-old plants, wild type; assay type: in vivo, Arabidopsis thaliana; conditions: 100 ml of 1 μM tiafenacil and 0.05% Silwet L-77 per 0.24 m^2; within 7 days
Method: In order to examine PPO-inhibiting herbicide tolerance of the transgenic plants, 4-week-old plants were evenly sprayed with herbicide (100 ml of 1 μM tiafenacil and 0.05% Silwet L-77 (v/v)) in 40×60 cm area (0.24 m^2).

[7] = molecular target: T1, Myxococcus xanthus MxPPO (SEQ ID NO: 3) variant V164A, fused to MBP (Myxococcus xanthus, UniProt P56601, V164A); assay: PPO enzyme inhibition assay (IC50), MBP-fused PPO (Table 15); assay type: biochemical
T1 construct: For encoding the PPO protein (MxPPO); made in house; host or cells: BL21 CodonPlus(DE3) E. coli

[8] = molecular target: T2, Myxococcus xanthus MxPPO (SEQ ID NO: 3) variant R95A, fused to MBP (Myxococcus xanthus, UniProt P56601, R95A); assay: biochemical
T2 construct: For encoding the PPO protein (MxPPO); made in house; host or cells: BL21 CodonPlus(DE3) E. coli

[9] = tested on: E. coli BT3(ΔPPO) transformed with Auxenochlorella protothecoides ApPPO1 (SEQ ID NO: 1) variant A215C (AC); assay: Herbicide tolerance test in PPO-deficient E. coli BT3(ΔPPO), growth on plates; assay type: cell-based; conditions: Table 7, light, 37° C., 16 to 20 hours, vs wild type at highest herbicide concentration
Method: (§5) The mutated CyPPO gene obtained from the Example 2 was transformed to BT3 (ΔPPO) strain which is deficient of PPO activity and cultured in LB media with PPO-inhibiting herbicide, thereby examining whether growth of transformed BT3 was not inhibited.
(§6) BT3 competent cells were transformed with the pET303-ApPPO1 and pET303-MxPPO plasmids and those with a mutation(s) constructed in Example 2 respectively, and were cultured in LB agar media containing carbenicillin (Gold Biotechnology, Co., Ltd.).
(§7) Single colony of E. coli transformed with each CyPPO gene was cultured in 3 ml of LB broth containing carbenicillin overnight, and then was subcultured until absorbance (OD600) reached 0.5 to 1. Then, it was diluted with LB broth to OD600=0.5. Again, the diluted solution was serially diluted 4 times by a factor of one tenth.
(§8) The LB agar media (LB 25 g/l, Bacto agar 15 g/l) containing carbenicillin (100 μg/ml) and 0 to 4,000 μM of various herbicides dissolved in DMSO was prepared. Next, 10 μl of each diluted solution was dropped on the plate and cultured at 37° C. under light (Tables 7, 9 and 10, FIGS. 2 to 6, 13 to 20) or dark (Tables 8 and 11, FIGS. 7 to 12, 21 to 24) for 16 to 20 hours. Then, the extent of tolerance was evaluated.
(§9) The extent of herbicide tolerance of the ApPPO1 or MxPPO mutated genes was evaluated by comparing that of mutated genes with that of ApPPO1 or MxPPO wild type. The relative tolerance was represented with “+” as a factor of 10 times.
(§10) In Tables 7 to 11, tolerance level was presented as ‘−’ of tolerance of wild type and of variants equivalent to that of wild type, and was done as ‘+’ per each 10 fold resistance until ‘+++++’ as maximal resistance. […] A dilution series (OD600=0.5, 0.05, 0.005, 0.0005, 0.00005) was made and spotted on LB agar plates supplemented with herbicides.

[10] = molecular target: Auxenochlorella protothecoides ApPPO1 (SEQ ID NO: 1) variant A215L, fused to MBP (Auxenochlorella protothecoides, UniProt A0A087SQM0, A215L); assay: biochemical
Method: as §2, §3, §4

[11] = tested on: transgenic A. thaliana transformed with ApPPO1 variants, MxPPO or MxPPO variants; assay: Herbicide spray test on 4-week-old plants, transgenic; assay type: in vivo, Arabidopsis thaliana; conditions: 100 ml of 1 μM tiafenacil and 0.05% Silwet L-77 per 0.24 m^2
Source text: A. thaliana was transformed with a binary vector having ORF of a selectable marker, Bar gene (glufosinate-tolerant gene), and ORF of each gene of ApPPO1 variants, MxPPO, and MxPPO variants. The transgenic plant was examined for cross-tolerance towards glufosinate and PPO-inhibiting herbicides. The bar gene was also used to examine whether the transgene was stably inherited during generations. NOS promoter and E9 terminator were used for bar gene expression.
In order to express proteins of ApPPO1 variants, MxPPO, and MxPPO variants in plants, a CaMV35S promoter and a NOS terminator were used. Encoding genes of ApPPO1 variants, MxPPO, and MxPPO variants were introduced into binary vector using XhoI and BamHI restriction enzymes. Furthermore, for confirmation of the protein expression, hemagglutinin (HA) tag was fused to the C-terminal region of PPO protein coding gene using BamHI and SacI restriction enzymes. […]
Each transformed Agrobacterium was screened in spectinomycin-containing LB media. […] After Agrobacterium cell was harvested from the culture media, it was resuspended in the solution containing 5% sucrose (w/v) and 0.05% Silwet L-77 (v/v) (Momentive Performance Materials Co., Ltd.) at an absorbance (OD600) of 0.8. […]

[12] = tested on: E. coli BT3(ΔPPO) transformed with Auxenochlorella protothecoides ApPPO1 (SEQ ID NO: 1) variant Y422M (YM); assay: Herbicide tolerance test in PPO-deficient E. coli BT3(ΔPPO), growth on plates; assay type: cell-based; conditions: Table 7, light, 37° C., 16 to 20 hours, vs wild type at highest herbicide concentration
Method: as §5, §6, §7, §8, §9, §10

Sequence of Auxenochlorella protothecoides ApPPO1 (SEQ ID NO: 1) variant A215L, fused to MBP (A0A087SQM0 entry or part of it A215L): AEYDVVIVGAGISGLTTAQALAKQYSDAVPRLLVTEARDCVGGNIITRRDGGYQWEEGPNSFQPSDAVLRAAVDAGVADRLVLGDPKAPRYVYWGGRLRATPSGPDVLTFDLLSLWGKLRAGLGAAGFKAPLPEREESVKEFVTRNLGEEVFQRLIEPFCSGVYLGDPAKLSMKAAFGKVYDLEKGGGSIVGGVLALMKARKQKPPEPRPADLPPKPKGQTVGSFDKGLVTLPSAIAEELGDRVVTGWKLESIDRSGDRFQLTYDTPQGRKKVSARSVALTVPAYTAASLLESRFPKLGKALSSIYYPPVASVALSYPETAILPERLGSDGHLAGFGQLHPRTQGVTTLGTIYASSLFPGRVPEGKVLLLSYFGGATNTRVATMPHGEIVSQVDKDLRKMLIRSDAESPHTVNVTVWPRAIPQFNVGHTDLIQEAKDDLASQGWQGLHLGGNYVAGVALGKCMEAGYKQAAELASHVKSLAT
Sequence of Auxenochlorella protothecoides ApPPO1 (SEQ ID NO: 1) variant F209A, fused to MBP (A0A087SQM0 entry or part of it F209A): as the sequence (A0A087SQM0 entry or part of it A215L) above, with F159A, L165A counted along it
T2 sequence (P56601 whole entry R95A, the tested form may be a part): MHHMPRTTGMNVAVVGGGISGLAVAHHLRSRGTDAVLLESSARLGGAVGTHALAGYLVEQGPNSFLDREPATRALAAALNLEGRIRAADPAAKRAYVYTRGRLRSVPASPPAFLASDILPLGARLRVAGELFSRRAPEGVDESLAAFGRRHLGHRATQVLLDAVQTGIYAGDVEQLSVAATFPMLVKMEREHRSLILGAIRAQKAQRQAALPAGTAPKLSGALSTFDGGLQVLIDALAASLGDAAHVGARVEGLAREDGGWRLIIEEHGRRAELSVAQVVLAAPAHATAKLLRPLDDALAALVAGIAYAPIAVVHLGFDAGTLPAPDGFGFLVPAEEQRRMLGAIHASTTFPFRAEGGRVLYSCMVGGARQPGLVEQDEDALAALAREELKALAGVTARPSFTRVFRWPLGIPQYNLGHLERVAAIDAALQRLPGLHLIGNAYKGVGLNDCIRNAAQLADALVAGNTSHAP
Sequence of Auxenochlorella protothecoides ApPPO1 (protoporphyrinogen IX oxidase), wild type, SEQ ID NO: 1, fused to MBP (A0A087SQM0 51-532): as the sequence (A0A087SQM0 entry or part of it A215L) above, with L165A counted along it
T1 sequence (P56601 whole entry V164A, the tested form may be a part): as the sequence (P56601 whole entry R95A, the tested form may be a part) above, with A95R, V164A counted along it

Compound: COC(=O)CCNC(=O)C(C)Sc1cc(-n2c(=O)cc(C(F)(F)F)n(C)c2=O)c(F)cc1Cl (centres unmarked) [tiafenacil]
- pIC50 [1]: 7.16
- pIC50 [2]: 7.68
- relative herbicide tolerance level [3]: + (1-9 fold higher tolerance)
- relative herbicide tolerance level ([4]; Table 7, light, vs wild type at highest herbicide concentration): −
- relative herbicide tolerance level ([4]; Table 8, dark, tiafenacil to 200 μM, flumioxazin to 100 μM, sulfentrazone to 400 μM): −
- relative herbicide tolerance level ([5]; Table 9, tiafenacil to 2000 μM, saflufenacil to 200 μM, flumioxazin to 100 μM): −
- relative herbicide tolerance level ([5]; Table 10, tiafenacil 2000 μM, flumioxazin to 400 μM, sulfentrazone to 1000 μM): −
- plant damage after spraying [6]: completely died within 7 days after treatment
- pIC50 [7]: 6.44
- pIC50 [8]: 5.63
- relative herbicide tolerance level [9]: + (1-9 fold higher tolerance)
- pIC50 [10]: 5.46
- plant damage after spraying [11]: no damage
- relative herbicide tolerance level [12]: +++ (100-999 fold higher tolerance)
